Values of other authors as cited in article PMC13468302, “African Polyherbal Formulations for Type 2 Diabetes: A Systematic Review and Meta-Analysis of Efficacy, Mechanisms, and Therapeutic Potential” (Plants, 2026).

Assays:
[1] = system: alloxan-induced diabetic Wistar rats; details: combination at 400 mg/kg; 21 days; ref [49]
[2] = system: HFD + STZ (45 mg/kg)-induced diabetic Sprague Dawley rats; details: UL 100 mg/kg, metformin 50 mg/kg, UL+Met 100/50 mg/kg, insulin 2U; 28 days; ref [44]
[3] = system: alloxan-induced diabetic Wistar rats; details: 300 mg/kg each orally, 21 days; ref [53]

Compound | serum glucose reduction [1] [%] | fasting glucose change [2] [%] | glucose reduction [3] [%]
COc1ccc(Cl)cc1C(=O)NCCc1ccc(S(=O)(=O)NC(=O)NC2CCCCC2)cc1 [glibenclamide] | 56.5 |  | 
CN(C)C(=N)N=C(N)N [metformin] |  | −15.34 | 
insulin |  | −35.65 | 69.1
